The target in series [1] is T1, CypA (Homo sapiens, UniProt P62937).
T1 construct: made in house; host or cells: E. coli BL21(DE3)
The series is described as follows: biochemical. The note with it: for kon: pH 7.4, read-out: ka1 (association rate constant), two state reaction model; for koff: pH 7.4, read-out: kd1 (dissociation rate constant), two state reaction model. Type of series: binding. The protocol: The two-state binding model, also called the conformational change model, is based on a 1:1 binding of an analyte to the immobilized ligand followed by a conformational change in the complex. This model should be regarded as indicative, rather than as direct evidence, for a conformational change upon binding. […] From the two-state binding model the association rate (ka1), dissociation rate (kd1), forward rate (ka2) and backward rate (kd2) constants were calculated, and subsequently the magnitude of the dissociation constants (KD) could be calculated ([…] (Table 1).
(§1) SPR measurements were performed at 25°C on a Biacore T100 instrument (Biacore AB, Uppsala, Sweden) equipped with a CM5 research-grade sensor chip. CypA was immobilized in FC 2 and FC 4 to 180 and 918 RU (response units) respectively, using standard amine-coupling chemistry in two flow cells. FC 1 and FC 3 were treated according to FC 2 and FC 4 except for CypA immobilisation and functioned as reference cells. The synthetic Vpr peptides sVpr^1-20, sVpr^21-40, sVpr^25-40, sVpr^30-40, sVpr^32-38 and sVpr^33-37 were dissolved at four concentrations ranging from 50 to 400 μM in the running buffer (HBS-P buffer pH 7.4). […] The samples were injected over the flow cells at a flow rate of 30 μl/min. Data were collected at 2.5 Hz during the 60 s association and 120 s dissociation phase, and were automatically corrected for bulk buffer effects and unspecific binding of Vpr peptides to the chip matrix.
Affinity, association and dissociation rate constants were obtained from sensograms by the Biacore T100 evaluation software version 2.0.1 in accordance with the global curve fit model. Sensorgram data for the four different concentrations were fitted to several binding models including 1:1 (Langmuir) binding model (A+B ↔ AB), two-state reaction (conformational change) model (A+B ↔ AB ↔ AB*) and heterogeneous ligand model (interaction one: A+B1 ↔ AB1; interaction two: A+B2 ↔ AB2). Kinetic constants were calculated for the best fitted model.

Series [2] can be described thus: Solubility of sVpr peptides in aqueous buffer (observation during SPR sample preparation). Format: physicochemical. The note with it: for Solubility in SPR running buffer: HBS-P buffer pH 7.4, dissolved at 25-200 μM instead of 50-400 μM. The protocol:
as §1

In series [3] the target is T1, CypA. Put plainly: 2D 1H NOESY/ROESY NMR exchange spectroscopy of CypA prolyl cis/trans isomerase activity on sVpr peptides and its inhibition by cyclosporine A. The note with it: excess cyclosporine A (0.1 mg in 5 μl DMSO-d6) added after CypA. Format: biochemical. On the procedure: After acquisition of 1 D ^1H and 2D ^1H TOCSY, NOESY and ROESY NMR spectra of pure sVpr^1-20 and sVpr^21-40, 50-100 μl 0.11 mM CypA dissolved in aqueous Tris buffer at pH 7 was added to the individual peptide solutions, followed by acquisition of identical series of NMR spectra (1 D ^1H and 2D ^1H TOCSY, NOESY and ROESY) to those of the pure peptides. Exchange peaks occurring in the spectra after addition of CypA were identified by supposition of analogous NOESY and/or ROESY spectra prior to and after addition of CypA using Bruker Topspin 1.3 software.
The catalytic prolyl cis/trans isomerase interactions of CypA with sVpr^1-20 and sVpr^21-40 was inhibited by addition of excessive amounts of cyclosporine A dissolved in 5 μl deuterated dimethylsulfoxide (DMSO-d6).

Series [4] deals with HIV. Particulars: specific inhibitors of the prolyl cis/trans isomerase activity of CypA; cited from earlier work. The source says: The interaction of HIV-1 Vpr with CypA is known to occur in vitro and in vivo [9-11]. […] Nonetheless, spe ...

No end group written: not given here.

Usually Kd stands for the constant that tells how readily two partners part at equilibrium. A higher Kd goes with lower affinity.

T1 sequence (P62937 whole entry): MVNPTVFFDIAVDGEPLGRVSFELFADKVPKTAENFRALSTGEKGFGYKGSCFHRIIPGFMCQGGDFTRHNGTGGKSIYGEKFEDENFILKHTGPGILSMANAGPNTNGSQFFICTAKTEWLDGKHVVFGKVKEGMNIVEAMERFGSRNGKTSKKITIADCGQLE

With `CC[C@H](C)[C@H](NC(=O)[C@H](CCCNC(=N)N)NC(=O)[C@@H]1CCCN1C(=O)[C@H](Cc1ccccc1)NC(=O)[C@H](Cc1c[nH]cn1)NC(=O)[C@H](CCCNC(=N)N)NC(=O)[C@@H](NC(=O)[C@H](C)NC(=O)[C@H](CCC(=O)O)NC(=O)[C@H](CO)NC(=O)[C@H](CCCCN)NC(=O)[C@H](CC(C)C)NC(=O)[C@H](CCC(=O)O)NC(=O)[C@H](CCC(=O)O)NC(=O)[C@H](CC(C)C)NC(=O)[C@H](CC(C)C)NC(=O)[C@H](CCC(=O)O)NC(=O)[C@H](CC(C)C)NC(=O)[C@@H](NC(=O)[C@@H](NC(=O)[C@H](Cc1c[nH]c2ccccc12)NC(=O)[C@H](CCC(=O)O)NC(=O)[C@H](CC(N)=O)NC(=O)[C@H](Cc1ccc(O)cc1)NC(=O)[C@H](CC(N)=O)NC(=O)[C@H](CCC(=O)O)NC(=O)[C@H](CCCNC(=N)N)NC(=O)[C@H](CCC(N)=O)NC(=O)[C@H](CC(N)=O)NC(=O)CNC(=O)[C@H](CCC(N)=O)NC(=O)[C@H](CC(=O)O)NC(=O)[C@H](CCC(=O)O)NC(=O)[C@H](CC(N)=O)NC(=O)[C@H](C)NC(=O)[C@H](CCC(N)=O)NC(=O)[C@H](CCC(=O)O)NC(=O)[C@@H](N)CCSC)[C@@H](C)O)[C@@H](C)O)C(C)C)C(=O)N[C@@H](Cc1c[nH]c2ccccc12)C(=O)N[C@@H](CC(C)C)C(=O)N[C@@H](Cc1c[nH]cn1)C(=O)O` [sVpr^1-40 P5,10,14 N], in series [1], the kon was 46 M⁻¹ s⁻¹ and the koff was 0.56 s⁻¹. The “Solubility in SPR running buffer” value in series [2] is listed as “restricted solubility”. The “Solubility in aqueous buffer solution” value in series [2] (aqueous buffer solution at pH 7, offered as possible reason for unreliable KD) is “relatively poor solubility”.

With `CC[C@H](C)[C@H](NC(=O)[C@H](CCCNC(=N)N)NC(=O)[C@@H]1CCCN1C(=O)[C@H](Cc1ccccc1)NC(=O)[C@H](Cc1c[nH]cn1)NC(=O)[C@H](CCCNC(=N)N)NC(=O)[C@@H](NC(=O)[C@H](C)NC(=O)[C@H](CCC(=O)O)NC(=O)[C@H](CO)NC(=O)[C@H](CCCCN)NC(=O)[C@H](CC(C)C)NC(=O)[C@H](CCC(=O)O)NC(=O)[C@H](CCC(=O)O)NC(=O)[C@H](CC(C)C)NC(=O)[C@H](CC(C)C)NC(=O)[C@H](CCC(=O)O)NC(=O)[C@H](CC(C)C)NC(=O)[C@@H](NC(=O)[C@@H](NC(=O)[C@H](Cc1c[nH]c2ccccc12)NC(=O)[C@H](CCC(=O)O)NC(=O)[C@H](CC(N)=O)NC(=O)[C@H](Cc1ccc(O)cc1)NC(=O)[C@@H]1CCCN1C(=O)[C@H](CCC(=O)O)NC(=O)[C@H](CCCNC(=N)N)NC(=O)[C@H](CCC(N)=O)NC(=O)[C@@H]1CCCN1C(=O)CNC(=O)[C@H](CCC(N)=O)NC(=O)[C@H](CC(=O)O)NC(=O)[C@H](CCC(=O)O)NC(=O)[C@@H]1CCCN1C(=O)[C@H](C)NC(=O)[C@H](CCC(N)=O)NC(=O)[C@H](CCC(=O)O)NC(=O)[C@@H](N)CCSC)[C@@H](C)O)[C@@H](C)O)C(C)C)C(=O)N[C@@H](Cc1c[nH]c2ccccc12)C(=O)N[C@@H](CC(C)C)C(=O)N[C@@H](Cc1c[nH]cn1)C(=O)O` [sVpr^1-40], in series [1], the Kd amounted to 284 µM, the kon is 752 M⁻¹ s⁻¹ and the koff worked out at 0.37 s⁻¹. In addition, the “Solubility in SPR running buffer” value in series [2] was “restricted solubility”.

`CC[C@H](C)[C@H](NC(=O)[C@H](CCCNC(=N)N)NC(=O)[C@@H]1CCCN1C(=O)[C@H](Cc1ccccc1)NC(=O)[C@H](Cc1c[nH]cn1)NC(=O)[C@H](CCCNC(=N)N)NC(=O)[C@@H](NC(=O)[C@H](C)NC(=O)[C@H](CCC(=O)O)NC(=O)[C@H](CO)NC(=O)[C@H](CCCCN)NC(=O)[C@H](CC(C)C)NC(=O)[C@H](CCC(=O)O)NC(=O)[C@H](CCC(=O)O)NC(=O)[C@H](CC(C)C)NC(=O)[C@H](CC(C)C)NC(=O)[C@@H](N)CCC(=O)O)C(C)C)C(=O)N[C@@H](Cc1c[nH]c2ccccc12)C(=O)N[C@@H](CC(C)C)C(=O)N[C@@H](Cc1c[nH]cn1)C(=O)O` [sVpr^21-40]: in series [1], the kon was found to be 466 M⁻¹ s⁻¹ and the koff was 0.164 s⁻¹.

Take `CC[C@H](C)[C@H](NC(=O)[C@H](CCCNC(=N)N)NC(=O)[C@@H]1CCCN1C(=O)[C@H](Cc1ccccc1)NC(=O)[C@H](Cc1c[nH]cn1)NC(=O)[C@H](CCCNC(=N)N)NC(=O)[C@@H](NC(=O)[C@H](C)NC(=O)[C@H](CCC(=O)O)NC(=O)[C@H](CO)NC(=O)[C@H](CCCCN)NC(=O)[C@H](CC(C)C)NC(=O)[C@@H](N)CCC(=O)O)C(C)C)C(=O)N[C@@H](Cc1c[nH]c2ccccc12)C(=O)N[C@@H](CC(C)C)C(=O)N[C@@H](Cc1c[nH]cn1)C(=O)O` [sVpr^25-40]: in series [1], the kon stood at 2000 M⁻¹ s⁻¹ and the koff was found to be 0.942 s⁻¹.

Turning to `CC[C@H](C)[C@H](NC(=O)[C@H](CCCNC(=N)N)NC(=O)[C@@H]1CCCN1C(=O)[C@H](Cc1ccccc1)NC(=O)[C@H](Cc1c[nH]cn1)NC(=O)[C@H](CCCNC(=N)N)NC(=O)[C@@H](NC(=O)[C@H](C)N)C(C)C)C(=O)N[C@@H](Cc1c[nH]c2ccccc12)C(=O)N[C@@H](CC(C)C)C(=O)N[C@@H](Cc1c[nH]cn1)C(=O)O` [sVpr^30-40], in series [1], the kon is 2470 M⁻¹ s⁻¹ and the koff worked out at 0.527 s⁻¹.

For HFPRI [sVpr^33-37], in series [1], the kon amounted to 120 M⁻¹ s⁻¹ and the koff was found to be 0.66 s⁻¹.

As to RHFPRIW [sVpr^32-38], in series [1], the kon was 924 M⁻¹ s⁻¹ and the koff came out at 0.67 s⁻¹.

As for cyclosporine A, the figures for the “Inhibition of CypA prolyl cis/trans isomerase activity (exchange crosspeaks after addition of inhibitor)” value in series [3] (substrate sVpr1-20) and in series [3] (substrate sVpr21-40) were “disappearance of the prolyl cis/trans exchange crosspeaks” and “prolyl cis/trans exchange crosspeaks disappeared”, respectively. Moreover, in series [4], the “Inhibition of HIV replication” value was “inhibit HIV replication”.

The values above are taken from paper PMC2959089, “The intriguing Cyclophilin A-HIV-1 Vpr interaction: prolyl cis/trans isomerisation catalysis and specific binding” (BMC Structural Biology, 2010).
